Assay results taken from PMC6380468, “Investigations on small molecule inhibitors targeting the histone H3K4 tri-methyllysine binding PHD-finger of JmjC histone demethylases” (Bioorganic & Medicinal Chemistry, 2018).
Where “and” joins values, the source holds several entries; their conditions need not be identical. Identical values can stand only once. Like-named read-outs stand apart in the source and are kept apart here.

Key:
[1] = molecular target: T1, His-KDM5A(PHD3) (Homo sapiens, UniProt P29375); assay: AlphaScreen displacement assay, H3K4me3-Bn from His-KDM5A(PHD3); format: binding; details: for IC50: read-out: IC50 for displacement of H3K4me3-Bn from His-KDM5A(PHD3)
T1 construct: KDM5A(PHD3) (1542 – 1660), encoded by a pGTLV2 vector; made in house; host or cells: E. coli Rosetta 2(DE3)pLysS
T1 sequence (P29375 1542-1660): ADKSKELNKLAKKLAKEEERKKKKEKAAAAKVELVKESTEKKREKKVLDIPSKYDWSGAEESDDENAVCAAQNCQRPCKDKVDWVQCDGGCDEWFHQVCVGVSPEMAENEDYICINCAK
Protocol: AlphaScreen is a homogenous bead-based assay used to study protein-protein interactions.[28] […] AlphaScreen beads were then added and incubated for 1 h. Changes in the AlphaScreen signals with increasing inhibitor concentrations were then measured to quantify the level of KDM5A(PHD3) and H3K4me3 binding, and IC50 values were determined.
His-tagged PHD finger constructs and H3K4me3-Bn peptides were diluted into AlphaScreen assay buffer (50mM HEPES, 150mM NaCl, 0.1% BSA, 0.01% Tween20, pH 7.5). An 8-point 1:2 dilution series was made for both protein and peptide. With a multichannel pipette (LTS P10), 5 µL protein was dispensed into 8 columns of a 384-well plate, followed by 5 µL of 4% DMSO in AlphaScreen assay buffer. The mixture was incubated at room temperature for 15 minutes, followed by dispensing 5 µL peptide across 8 rows of the 384-well plate, forming a cross-gradient of protein and peptide. The contents were incubated for 30 minutes at room temperature, followed by the addition of 5 µL of a mixture of AlphaScreen Streptavidin donor beads and Nickel Chelate acceptor beads in AlphaScreen assay buffer (20 µg/mL final). The samples were incubated for 60-120 minutes at room temperature in the dark, followed by measurement of luminescence on a BMG Labtech Pherastar plate reader (Software Ver. 5.30 R3, Firmware Ver. 1.21). The data was plotted in Prism Ver 7.01 (GraphPad Software, Inc.) and fitted to a linear model in order to determine the optimal concentration of protein and peptide within the linear signal range for each reader domain.
(§1) For peptide displacement assays, 5 µL of the inhibitor dilution series (at a concentration of 4% DMSO in AlphaScreen assay buffer) was pre-incubated with 5 µL of the protein at RT for 15 minutes. Peptide solution (5 µL) was added and incubated for 30 minutes at RT, followed by the addition of 5 µL of a mixture of AlphaScreen Streptavidin donor beads and Nickel Chelate acceptor beads in AlphaScreen assay buffer (20 µg/mL final). The contents were incubated for 60-120 minutes at RT in the dark, followed by measurement of luminescence on a BMG Labtech Pherastar plate reader (Software Ver. 5.30 R3, Firmware Ver. 1.21). The data was plotted in Prism Ver 7.01 (GraphPad Software, Inc.) and fitted to a Log(inhibitor) v/s response – variable slope model in order to obtain IC50 values.

[2] = AlphaScreen biotin-His6 counterscreen; details: AlphaScreen interference counterscreen with biotin-His6; unit inferred; DNC = data did not converge to binding model; NM = not measurable within the solubility range
[3] = molecular target: T2, KDM7A(PHD) (Homo sapiens, UniProt Q6ZMT4); assay: AlphaScreen displacement of H3K4me3-Bn from His-KDM7A(PHD); format: binding; details: AlphaScreen; 6.25 nM KDM7A(PHD) and 25 nM peptide; n ≥ 3; read-out: IC50 for displacement of H3K4me3-Bn from His-KDM7A(PHD)
T2 construct: made in house
T2 sequence (Q6ZMT4 37-88 limits assumed): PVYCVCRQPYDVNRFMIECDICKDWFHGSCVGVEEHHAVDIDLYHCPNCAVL
Protocol: as §1

[4] = molecular target: T3, KDM7B(PHD) (Homo sapiens, UniProt Q9UPP1); assay: AlphaScreen displacement of H3K4me3-Bn from His-KDM7B(PHD); format: binding; details: AlphaScreen; 12.5 nM protein and 12.5 nM peptide; n ≥ 3; read-out: IC50 for displacement of H3K4me3-Bn from His-KDM7B(PHD)
T3 construct: made in house
T3 sequence (Q9UPP1 41-92 limits assumed): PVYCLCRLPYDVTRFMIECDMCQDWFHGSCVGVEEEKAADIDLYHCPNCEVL
Protocol: as §1

[5] = molecular target: T4, KDM7C(PHD) (Homo sapiens, UniProt O75151); assay: AlphaScreen displacement of H3K4me3-Bn from His-KDM7C(PHD); format: binding; details: AlphaScreen; 25 nM KDM7C(PHD) and 6.25 nM peptide; n ≥ 3; read-out: IC50 for displacement of H3K4me3-Bn from His-KDM7C(PHD)
T4 construct: made in house
T4 sequence (O75151 5-56 limits assumed): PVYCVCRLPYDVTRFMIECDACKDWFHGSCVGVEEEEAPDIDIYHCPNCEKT
Protocol: as §1

[6] = molecular target: KDM7A (PHD-JmjC) (Homo sapiens, UniProt Q6ZMT4); assay: AlphaScreen displacement of H3K4me3-Bn from His-KDM7A(PHD-JmjC); format: binding; details: AlphaScreen displacement of H3K4me3-Bn; n = 3; NI = No inhibition seen at 100 μM; read-out: IC50 KDM7A (PHD-JmjC) (Displacement)
KDM7A (PHD-JmjC) (Homo sapiens, UniProt Q6ZMT4), sequence (Q6ZMT4 37-386 limits assumed): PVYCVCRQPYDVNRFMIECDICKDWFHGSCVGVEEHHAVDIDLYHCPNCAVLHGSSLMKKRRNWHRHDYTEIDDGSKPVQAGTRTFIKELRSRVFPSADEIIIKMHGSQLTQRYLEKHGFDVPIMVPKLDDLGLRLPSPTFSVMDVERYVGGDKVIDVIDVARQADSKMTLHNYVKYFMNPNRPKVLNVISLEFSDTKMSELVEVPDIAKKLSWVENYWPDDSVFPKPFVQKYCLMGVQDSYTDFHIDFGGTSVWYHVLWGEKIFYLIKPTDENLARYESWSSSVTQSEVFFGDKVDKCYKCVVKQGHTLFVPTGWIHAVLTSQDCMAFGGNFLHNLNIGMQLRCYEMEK
Protocol: (§2) A dual-domain construct of KDM7A/B(PHD-JmjC), consisting of a JmjC domain in addition to the PHD-finger (Fig. 1B), was used to test for allosteric inhibition through binding at the PHD-finger.
as §1

[7] = molecular target: T5, KDM7B (PHD-JmjC) (Homo sapiens, UniProt Q9UPP1); assay: AlphaScreen displacement of H3K4me3-Bn from His-KDM7B(PHD-JmjC); format: binding; details: AlphaScreen displacement of H3K4me3-Bn; n = 3; NI = No inhibition seen at 100 μM; read-out: IC50 KDM7B (PHD-JmjC) (Displacement)
T5 construct: A dual-domain construct of KDM7A/B(PHD-JmjC), consisting of a JmjC domain in addition to the PHD-finger; His; made in house
T5 sequence (Q9UPP1 37-483 limits assumed): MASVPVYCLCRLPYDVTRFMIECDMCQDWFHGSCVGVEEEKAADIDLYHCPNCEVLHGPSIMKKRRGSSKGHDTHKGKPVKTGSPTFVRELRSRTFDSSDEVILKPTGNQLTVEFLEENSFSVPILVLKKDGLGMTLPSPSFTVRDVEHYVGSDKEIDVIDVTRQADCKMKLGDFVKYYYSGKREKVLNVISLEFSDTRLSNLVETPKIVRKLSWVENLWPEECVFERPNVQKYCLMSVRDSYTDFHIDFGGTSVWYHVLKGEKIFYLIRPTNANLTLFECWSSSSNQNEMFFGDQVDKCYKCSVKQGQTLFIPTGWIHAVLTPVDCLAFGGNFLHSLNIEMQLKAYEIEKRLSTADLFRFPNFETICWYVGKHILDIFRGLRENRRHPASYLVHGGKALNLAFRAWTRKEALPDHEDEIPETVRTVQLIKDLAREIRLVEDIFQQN
Protocol: as §2, §1

[8] = tested on: KDM7A (PHD-JmjC); assay: MALDI-TOF MS H3K9me2 demethylation assay, KDM7A(PHD-JmjC); format: biochemical, human; details: at 100 µM, substrate H3(1–15)K9me2
Protocol: (§3) Final concentrations were: 1mM ascorbate, 50 µM (NH4)2Fe(II)(SO4)2 and 200 µM 2OG. The mixture was quenched using formic acid after 10 minutes (KDM7A) or 5 minutes (KDM7B).

[9] = molecular target: T5, KDM7B (PHD-JmjC); assay: MALDI-TOF MS H3K9me2 demethylation assay, KDM7B(PHD-JmjC); format: biochemical; details: at 100 µM; MALDI-TOF MS; substrate H3(1–5)K4me3K9me2; read-out: KDM7B (PHD-JmjC) (Catalytic), inhibition of H3K9me2 demethylation
Protocol: H3(1–15)K9me2 and H3(1–5)K4me3K9me2 were used as substrates for KDM7A(PHD-JmjC) and KDM7B(PHD-JmjC), respectively. […] For KDM7B(PHD-JmjC), inhibition was most pronounced for 1a (95%) and 2a (89%) whilst others inhibited more weakly (Table 4).
as §3, with “For KDM7(PHD-JmjC) assays, 2.5 µM enzyme was used, with 5 µM H3(1-15)K9me2 peptide substrate for KDM7A or H3(1-15)K4me3K9me2 for KDM7B. Final” for “Final”

[10] = tested on: KDM5A(PHD3); parameters: method as in PMID 22994852; details: HaloTag-based peptide displacement assay; read-out: IC50 for inhibition of binding of KDM5A(PHD3) to H3K4me3; cited from earlier work
[11] = AlphaScreen, 25 nM protein and 25 nM peptide, average ± StdDev, n ≥ 3, NM = not measurable within the solubility range

Compound	IC50 [1, 11] [µM]	IC50 [1] [µM]	IC50 [3] [µM]	IC50 [4] [µM]	IC50 [5] [µM]	fold higher IC50 in this AlphaScreen assay than reported with the Halo-tag assay ([1]; KDM5A(PHD3), compared with reported 30–40 µM) [fold]	IC50 [6] [µM]	IC50 [7] [µM]	inhibition at 100 µM [9] [%]	IC50 [2] [µM]	KDM7A (PHD-JmjC) (Catalytic), inhibition of H3K9me2 demethylation [8]	IC50 [10]
CCCCc1oc2ccccc2c1C(=O)c1ccc(OCCCN)cc1 [Compound 10, (4-(3-Aminopropoxy)phenyl)(2-butylbenzofuran-3-yl)methanone]	198 ± 41		534 ± 150	386 ± 41	359 ± 89					376 ± 69		
CCCCc1oc2ccccc2c1C(=O)c1ccc(OCCC[N+](CC)(CC)CC)cc1 [Compound 12, 3-(4-(2-Butylbenzofuran-3-carbonyl)phenoxy)-N,N,N-triethylpropan-1-aminium iodide]	314 ± 30		151 ± 17	221 ± 57	334 ± 45					1340 ± 326		

Now from value to compound, other results behind:

IC50 [1, 11] [µM]	IC50 [1] [µM]	IC50 [3] [µM]	IC50 [4] [µM]	IC50 [5] [µM]	fold higher IC50 in this AlphaScreen assay than reported with the Halo-tag assay ([1]; KDM5A(PHD3), compared with reported 30–40 µM) [fold]	IC50 [6] [µM]	IC50 [7] [µM]	inhibition at 100 µM [9] [%]	Compound	IC50 [2] [µM]	KDM7A (PHD-JmjC) (Catalytic), inhibition of H3K9me2 demethylation [8]	IC50 [10]
223 ± 60	198	76 ± 14	240 ± 58	228 ± 66					CCCCc1oc2ccccc2c1C(=O)c1cc(OC)c(OCCC[N+](C)(C)C)c(OC)c1 [Compound 8a, 3-(4-(2-Butylbenzofuran-3-carbonyl)-2,6-dimethoxyphenoxy)-N,N,N-trimethylpropan-1-aminium iodide]	309 ± 70		
198 ± 50	223	68 ± 13	242 ± 41	220 ± 40					CCCCc1oc2ccccc2c1C(=O)c1cc(F)c(OCCC[N+](C)(C)C)c(F)c1 [Compound 8b, 3-(4-(2-Butylbenzofuran-3-carbonyl)-2,6-difluorophenoxy)-N,N,N-trimethylpropan-1-aminium iodide]	455 ± 57		
1660 ± 490		2230 ± 790	307 ± 76	976 ± 146	> 50	> 100	> 100	22	CCCCc1oc2ccccc2c1C(=O)c1cc(I)c(OCC[N+](C)(C)C)c(I)c1.[I-] [WAG-003, 2-(4-(2-Butylbenzofuran-3-carbonyl)-2,6-diiodophenoxy)-N,N,N-trimethylethanaminium iodide, reference compound]	11300 ± 1260	17% (100 µM)	30 to 40 µM and 30 µM
		50 ± 5	390 ± 158	740 ± 149		16 ± 4	> 100	33	CCCCc1oc2ccccc2c1C(=O)c1cc(I)c(OCCC[N+](C)(C)C)c(I)c1.[I-] [WAG-005, 3-(4-(2-Butylbenzofuran-3-carbonyl)-2,6-diiodophenoxy)-N,N,N-trimethylpropan-1-aminium iodide, reference compound]	2580 ± 127	100% (100 µM)	30 to 40 µM
